Source: ChEMBL document CHEMBL3797196, “Discovery of 3-aminopicolinamides as metabotropic glutamate receptor subtype 4 (mGlu4) positive allosteric modulator warheads engendering CNS exposure and in vivo efficacy” (Bioorg Med Chem Lett, 2016)
The source made the active and inactive calls. The calls are words filed in the database; no cut-off is given here.

Assays:
Cytochrome P450 3A4 = Cytochrome P450 3A4 (Homo sapiens, UniProt P08684); assay: Inhibition of CYP3A4 in human liver microsomes using 1-hydroxymidazolam as substrate; assay type: ADME
Cytochrome P450 2D6 = Cytochrome P450 2D6 (Homo sapiens, UniProt P10635); assay: Inhibition of CYP2D6 in human liver microsomes using dextrophan tartarate as substrate; assay type: ADME
Cytochrome P450 1A2 = target: T1, Cytochrome P450 1A2 (Homo sapiens, UniProt P05177); assay: Inhibition of CYP1A2 in human liver microsomes using acetaminophen as substrate; assay type: ADME
T1 sequence (P05177 whole entry): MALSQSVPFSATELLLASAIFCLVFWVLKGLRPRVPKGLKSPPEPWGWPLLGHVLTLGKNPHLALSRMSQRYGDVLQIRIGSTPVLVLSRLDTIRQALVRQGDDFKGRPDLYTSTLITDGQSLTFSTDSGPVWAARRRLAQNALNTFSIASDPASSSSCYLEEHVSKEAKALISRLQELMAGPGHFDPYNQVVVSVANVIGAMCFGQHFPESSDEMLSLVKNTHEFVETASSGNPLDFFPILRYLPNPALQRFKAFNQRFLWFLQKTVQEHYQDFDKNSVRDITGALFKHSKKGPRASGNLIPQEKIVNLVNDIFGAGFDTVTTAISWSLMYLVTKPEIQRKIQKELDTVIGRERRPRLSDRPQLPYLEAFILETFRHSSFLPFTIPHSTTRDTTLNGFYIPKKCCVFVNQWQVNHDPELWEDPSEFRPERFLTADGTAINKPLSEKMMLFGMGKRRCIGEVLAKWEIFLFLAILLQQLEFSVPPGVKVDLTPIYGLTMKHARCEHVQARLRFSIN

Cytochrome P450 2C9 = Cytochrome P450 2C9 (Homo sapiens, UniProt P11712); assay: Inhibition of CYP2C9 in human liver microsomes using 4-hydroxydiclofenac as substrate; assay type: ADME
[1] = Clearance in Sprague-Dawley rat by LC/MS analysis; assay type: ADME, organism-based; details: in vivo
[2] = Volume of distribution at steady state in Sprague-Dawley rat by LC/MS analysis; assay type: ADME, organism-based; details: in vivo, read-out: Vdss
[3] = Half life in Sprague-Dawley rat by LC/MS analysis; assay type: ADME, organism-based; details: in vivo
[4] = Ratio of drug level in brain to plasma in rat at 0.25 mg/kg, iv infused at 0.25 hr rate through cassette dosing schedule; assay type: ADME, organism-based
[5] = Binding affinity to human P-gp assessed as efflux ratio by cell based assay; assay type: ADME
Rattus norvegicus [6] = assay: Reversal of haloperidol-induced catalepsy in Sprague-Dawley rat at 1 mg/kg, po administered 60 mins after haloperidol-challenge measured after 30 mins; assay type: functional, organism-based
[7] = Drug level in brain of Sprague-Dawley rat model of haloperidol-induced catalepsy at 1 mg/kg, po administered 60 mins after haloperidol-challenge measured after 30 mins; assay type: ADME, organism-based; details: read-out: Drug uptake
Brain [8] = assay: Partition coefficient in brain of Sprague-Dawley rat model of haloperidol-induced catalepsy at 1 mg/kg, po administered 60 mins after haloperidol-challenge measured after 30 mins; assay type: ADME, organism-based; details: 0.5 h
[9] = Ratio of drug level in brain of Sprague-Dawley rat model of haloperidol-induced catalepsy at 1 mg/kg, po to EC50 for positive allosteric modulator activity at rat mGlu4 receptor
[10] = target: T2, Metabotropic glutamate receptor 4 (Homo sapiens, UniProt Q14833); assay: Positive allosteric modulator activity at human mGlu4 receptor expressed in CHO cells expressing Gqi5 by calcium mobilization assay; assay type: functional, cell-based
[11] = target: T2, Metabotropic glutamate receptor 4; assay: Positive allosteric modulation of human mGlu4 receptor expressed in CHO cells coexpressing Gqi5 assessed as potentiation of glutamate-induced calcium mobilization at 30 uM relative to (-)-PHCCC; assay type: functional, cell-based
[12] = target: Metabotropic glutamate receptor 4 (Rattus norvegicus, UniProt P31423); assay: Positive allosteric modulator activity at rat mGlu4 receptor
[13] = Intrinsic clearance in rat hepatic microsomes; assay type: ADME, Liver; details: read-out: CLH
[14] = Intrinsic clearance in human hepatic microsomes; assay type: ADME, Liver; details: read-out: CLH
[15] = Fraction unbound in human plasma; assay type: ADME, cell-free
Plasma = assay: Fraction unbound in rat plasma; assay type: ADME, cell-free
Rattus norvegicus [16] = assay: Reversal of haloperidol-induced catalepsy in Sprague-Dawley rat at 10 mg/kg, po administered 60 mins after haloperidol-challenge measured after 30 mins; assay type: functional, organism-based
Rattus norvegicus [17] = assay: Reversal of haloperidol-induced catalepsy in orally dosed Sprague-Dawley rat administered 60 mins after haloperidol-challenge measured after 30 mins; assay type: functional; details: po, read-out: MED
Rattus norvegicus [18] = assay: Reversal of haloperidol-induced catalepsy in Sprague-Dawley rat at 3 mg/kg, po administered 60 mins after haloperidol-challenge measured after 30 mins; assay type: functional, organism-based
[19] = Drug level in brain of Sprague-Dawley rat model of haloperidol-induced catalepsy at 1 to 10 mg/kg, po administered 60 mins after haloperidol-challenge measured after 30 mins; assay type: ADME, organism-based; details: read-out: Drug uptake
Brain [20] = assay: Partition coefficient in brain of Sprague-Dawley rat model of haloperidol-induced catalepsy at 1 to 10 mg/kg, po administered 60 mins after haloperidol-challenge measured after 30 mins; assay type: ADME, organism-based; details: 0.5 h
[21] = Ratio of drug level in brain of Sprague-Dawley rat model of haloperidol-induced catalepsy at 1 to 10 mg/kg, po to EC50 for positive allosteric modulator activity at rat mGlu4 receptor

T2 sequence (Q14833 whole entry): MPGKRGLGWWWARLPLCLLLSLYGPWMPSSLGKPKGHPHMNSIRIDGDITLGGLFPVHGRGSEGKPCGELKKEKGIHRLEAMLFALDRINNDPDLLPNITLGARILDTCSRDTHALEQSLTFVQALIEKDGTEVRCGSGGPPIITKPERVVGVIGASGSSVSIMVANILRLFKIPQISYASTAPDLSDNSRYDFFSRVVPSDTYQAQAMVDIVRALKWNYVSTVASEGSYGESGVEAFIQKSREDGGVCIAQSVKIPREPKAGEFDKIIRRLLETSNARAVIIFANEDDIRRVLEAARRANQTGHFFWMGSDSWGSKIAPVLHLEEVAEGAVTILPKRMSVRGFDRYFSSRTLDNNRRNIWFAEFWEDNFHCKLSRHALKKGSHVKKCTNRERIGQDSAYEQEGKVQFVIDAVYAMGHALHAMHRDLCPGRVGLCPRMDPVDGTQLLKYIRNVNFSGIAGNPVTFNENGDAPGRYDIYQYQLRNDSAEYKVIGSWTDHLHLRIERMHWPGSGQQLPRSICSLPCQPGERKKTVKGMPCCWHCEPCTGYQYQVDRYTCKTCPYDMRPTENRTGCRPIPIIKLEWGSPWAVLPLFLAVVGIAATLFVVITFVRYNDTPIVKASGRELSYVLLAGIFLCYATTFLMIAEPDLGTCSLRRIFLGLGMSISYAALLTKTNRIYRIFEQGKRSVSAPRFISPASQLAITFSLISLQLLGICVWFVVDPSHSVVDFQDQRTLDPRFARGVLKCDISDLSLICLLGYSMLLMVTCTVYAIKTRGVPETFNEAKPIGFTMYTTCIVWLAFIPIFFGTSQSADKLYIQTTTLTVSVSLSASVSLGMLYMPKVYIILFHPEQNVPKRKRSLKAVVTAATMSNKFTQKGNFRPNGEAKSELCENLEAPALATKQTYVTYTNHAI
Cytochrome P450 2D6, sequence (P10635 whole entry): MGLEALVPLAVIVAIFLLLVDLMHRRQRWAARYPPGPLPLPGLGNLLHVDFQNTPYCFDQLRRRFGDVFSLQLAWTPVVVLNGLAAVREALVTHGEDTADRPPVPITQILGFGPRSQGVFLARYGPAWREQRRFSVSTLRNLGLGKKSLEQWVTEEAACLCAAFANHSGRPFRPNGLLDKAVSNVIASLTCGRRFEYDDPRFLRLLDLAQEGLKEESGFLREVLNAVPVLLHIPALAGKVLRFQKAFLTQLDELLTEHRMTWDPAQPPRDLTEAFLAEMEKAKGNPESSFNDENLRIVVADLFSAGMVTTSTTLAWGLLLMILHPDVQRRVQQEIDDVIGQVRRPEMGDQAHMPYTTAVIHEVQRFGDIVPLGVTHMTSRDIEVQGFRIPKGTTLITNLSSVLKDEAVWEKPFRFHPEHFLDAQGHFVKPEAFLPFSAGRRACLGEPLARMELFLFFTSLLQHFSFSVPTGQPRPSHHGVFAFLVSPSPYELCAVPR
Metabotropic glutamate receptor 4 (Rattus norvegicus, UniProt P31423), sequence (P31423 whole entry): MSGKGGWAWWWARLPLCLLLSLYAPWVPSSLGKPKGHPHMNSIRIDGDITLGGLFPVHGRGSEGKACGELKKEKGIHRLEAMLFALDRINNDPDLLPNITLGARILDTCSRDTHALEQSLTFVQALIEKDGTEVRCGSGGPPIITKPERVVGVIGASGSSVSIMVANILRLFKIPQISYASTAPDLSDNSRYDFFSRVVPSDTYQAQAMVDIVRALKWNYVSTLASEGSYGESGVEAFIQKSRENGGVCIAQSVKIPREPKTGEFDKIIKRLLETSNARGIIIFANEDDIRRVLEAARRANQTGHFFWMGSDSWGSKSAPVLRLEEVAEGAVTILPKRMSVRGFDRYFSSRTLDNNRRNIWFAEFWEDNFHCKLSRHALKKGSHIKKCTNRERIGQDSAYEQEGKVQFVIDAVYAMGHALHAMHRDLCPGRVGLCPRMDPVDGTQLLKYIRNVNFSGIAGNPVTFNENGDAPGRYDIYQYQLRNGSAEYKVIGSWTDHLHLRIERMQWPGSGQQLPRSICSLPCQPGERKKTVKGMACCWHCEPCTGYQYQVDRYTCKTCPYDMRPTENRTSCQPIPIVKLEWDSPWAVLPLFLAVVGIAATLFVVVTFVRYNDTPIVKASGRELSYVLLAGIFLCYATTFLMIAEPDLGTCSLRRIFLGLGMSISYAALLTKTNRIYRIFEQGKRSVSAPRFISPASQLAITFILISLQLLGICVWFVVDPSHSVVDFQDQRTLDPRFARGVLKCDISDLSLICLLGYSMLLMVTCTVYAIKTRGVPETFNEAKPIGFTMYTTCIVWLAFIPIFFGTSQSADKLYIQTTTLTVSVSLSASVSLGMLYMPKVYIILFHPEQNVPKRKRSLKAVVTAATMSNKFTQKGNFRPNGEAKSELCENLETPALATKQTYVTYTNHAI
Cytochrome P450 2C9, sequence (P11712 whole entry): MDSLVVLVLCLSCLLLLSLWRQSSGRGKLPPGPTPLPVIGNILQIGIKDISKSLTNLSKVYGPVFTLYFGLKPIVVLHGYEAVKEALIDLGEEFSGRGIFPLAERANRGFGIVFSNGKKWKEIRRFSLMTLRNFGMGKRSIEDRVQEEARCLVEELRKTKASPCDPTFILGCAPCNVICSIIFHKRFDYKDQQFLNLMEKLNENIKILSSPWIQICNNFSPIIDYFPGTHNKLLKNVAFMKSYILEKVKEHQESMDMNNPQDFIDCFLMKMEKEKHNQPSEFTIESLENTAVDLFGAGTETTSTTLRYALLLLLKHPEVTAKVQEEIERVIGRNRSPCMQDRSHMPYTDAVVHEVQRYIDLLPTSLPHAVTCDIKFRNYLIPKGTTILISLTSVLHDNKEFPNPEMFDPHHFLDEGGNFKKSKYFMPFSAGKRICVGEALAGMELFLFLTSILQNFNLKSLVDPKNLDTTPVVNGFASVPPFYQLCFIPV
Cytochrome P450 3A4, sequence (P08684 whole entry): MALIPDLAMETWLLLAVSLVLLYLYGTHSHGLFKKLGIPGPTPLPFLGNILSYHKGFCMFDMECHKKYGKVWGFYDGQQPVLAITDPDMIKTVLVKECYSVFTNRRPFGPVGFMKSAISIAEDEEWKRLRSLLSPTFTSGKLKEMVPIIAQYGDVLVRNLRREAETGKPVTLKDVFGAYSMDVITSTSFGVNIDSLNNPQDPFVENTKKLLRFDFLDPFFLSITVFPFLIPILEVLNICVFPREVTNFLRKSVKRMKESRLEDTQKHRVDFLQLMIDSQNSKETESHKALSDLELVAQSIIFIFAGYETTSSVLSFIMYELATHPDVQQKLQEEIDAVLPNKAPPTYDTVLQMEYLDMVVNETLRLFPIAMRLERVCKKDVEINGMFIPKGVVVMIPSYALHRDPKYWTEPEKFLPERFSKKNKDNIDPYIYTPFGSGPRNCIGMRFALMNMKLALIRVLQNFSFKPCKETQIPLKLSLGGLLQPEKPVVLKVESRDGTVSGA

SMILES	EC50 ([10]; read-out: pEC50 (converted)) [nM]	%max [11] [%]	EC50 ([10]; read-out: EC50) [nM]	further results
Nc1cccnc1C(=O)Nc1ccc(N2C(=O)c3ccccc3C2=O)c(Cl)c1	95.5	89.1		IC50 (Cytochrome P450 3A4): > 30000 nM; IC50 (Cytochrome P450 2D6): > 30000 nM; IC50 (Cytochrome P450 1A2): > 30000 nM; IC50 (Cytochrome P450 2C9): 7200 nM; clearance [1]: 3.98 mL/min/kg; Vd [2]: 0.85 L/kg; half-life [3]: 3.7 h; Kp [4]: 1.31; Ratio [5]: 1.2; Activity (Rattus norvegicus [6]): Active; concentration at 0.5 h [7]: 334 nM; Kp (Brain [8]): 0.3; Ratio [9]: 2; EC50 [12]: 128 nM; CLint scaled [13]: 51 mL/min/kg; CLint scaled [14]: 5.8 mL/min/kg; Fu [15]: 0.007; Fu (Plasma): 0.003
COc1ccc2c(c1)C(=O)N(c1ccc(NC(=O)c3ncccc3N)cc1Cl)C2	316	71.7		
Nc1cccnc1C(=O)Nc1ccc(N2CC(c3c(F)cccc3Cl)CC2=O)c(Cl)c1 (stereo not given)	1860	75.9		
Cc1cccc2c1C(=O)N(c1ccc(NC(=O)c3ncccc3N)cc1Cl)C2=O	692	122		
Fc1ccc(Nc2n[nH]c3cccnc23)cc1Cl				Activity (Rattus norvegicus [6]): Active; Activity (Rattus norvegicus [16]): Active
CC(C)CC1CC(=O)N(c2ccc(NC(=O)c3ncccc3N)cc2Cl)C1 (stereo not given)	1620	74.5		
Nc1cccnc1C(=O)Nc1ccc(N2Cc3ccc(Cl)cc3C2=O)c(Cl)c1		42.3	> 10000	
CCc1cnc(Oc2ccc(NC(=O)c3ncccc3N)cc2Cl)nc1	64.6	97.9		IC50 (Cytochrome P450 3A4): 21100 nM; IC50 (Cytochrome P450 2D6): > 30000 nM; IC50 (Cytochrome P450 1A2): 2600 nM; IC50 (Cytochrome P450 2C9): > 30000 nM; clearance [1]: 13.7 mL/min/kg; Vd [2]: 0.86 L/kg; half-life [3]: 1.5 h; Kp [4]: 0.36; Ratio [5]: 1.9; minimal effective dose (Rattus norvegicus [17]): 1 mg/kg; Activity (Rattus norvegicus [18]): Active; concentration at 0.5 h [19]: 172 nM; Kp (Brain [20]): 0.2; Ratio [21]: 3.5; EC50 [12]: 46.6 nM; CLint scaled [13]: 46.1 mL/min/kg; CLint scaled [14]: 17.7 mL/min/kg; Fu [15]: 0.004; Fu (Plasma): 0.004
Nc1cccnc1C(=O)Nc1ccc(N2CC(c3cccnc3)CC2=O)c(Cl)c1 (stereo not given)	2510	92.8		
O=C(Nc1ccc(N2C(=O)c3ccccc3C2=O)c(Cl)c1)c1ncccc1O		115	125	
Nc1cccnc1C(=O)Nc1ccc(N2CC3(CCCC3)CC2=O)c(Cl)c1		13.8	> 10000	
Nc1cccnc1C(=O)Nc1ccc(N2CC3(CCCCC3)CC2=O)c(Cl)c1	1290	52		
Nc1cccnc1C(=O)Nc1ccc(N2Cc3ncccc3C2=O)c(Cl)c1	1260	68.9		
Nc1cccnc1C(=O)Nc1ccc(N2Cc3ccccc3C2=O)c(Cl)c1	234	43.9		
CC1(C2CC2)CC(=O)N(c2ccc(NC(=O)c3ncccc3N)cc2Cl)C1 (stereo not given)	2820	66.2		
Cc1ncc(Oc2ccc(NC(=O)c3ncccc3N)cc2Cl)cn1	1350	89.8		
CCc1cnc(Oc2ccc(NC(=O)c3nccnc3N)cc2Cl)nc1		104	296	
Nc1cccnc1C(=O)Nc1ccc(N2C(=O)C3CCC2C3)c(Cl)c1 (stereo not given)		47.7	> 10000	
CCc1cnc(Oc2ccc(NC(=O)c3ccncc3N)cc2Cl)nc1		44.2	> 10000	
Nc1cccnc1C(=O)Nc1ccc(N2CCCC2=O)c(Cl)c1		39.6	> 10000	
Nc1cccnc1C(=O)Nc1ccc(N2Cc3ccccc3CC2=O)c(Cl)c1	2190	63.2		
Nc1cccnc1C(=O)Nc1ccc(N2CCc3ccccc3C2=O)c(Cl)c1	912	60.7		
Nc1cccnc1C(=O)Nc1ccc(N2CC(Cc3ccccc3)CC2=O)c(Cl)c1 (stereo not given)	759	45.3		
CC1(C)CC(=O)N(c2ccc(NC(=O)c3ncccc3N)cc2Cl)C1		12.7	> 10000	
Nc1cccnc1C(=O)Nc1cccc(Cl)c1	575	88.1	587	
CC1c2ccccc2C(=O)N1c1ccc(NC(=O)c2ncccc2N)cc1Cl (stereo not given)	3980	76.8		
